Source: PMC3482425 (Journal of medicinal chemistry, 2012)

How the values were obtained:
LSD1 = conditions: read-out: IC50 (LSD1 inhibitor); cited from earlier work
[1] = system: SFRP2 in Calu-6 anaplastic epithelial lung carcinoma cells; experiment: Re-expression of SFRP2 in Calu-6 cells; format: cell-based, human; conditions: 24 or 48 hours
[2] = system: global H3K4me2 levels in Calu-6 human lung adenocarcinoma cells; experiment: cells; conditions: Calu-6, 48 h, read-out: H3K4me2 Fold Increase (48 h), 10 μM, Calu-6 cells
[3] = system: H3K4me1 levels in Calu-6 human lung adenocarcinoma cell line; experiment: Global H3K4me1 levels in Calu-6 cells; format: cell-based; conditions: at both 24 and 48 hours
[4] = system: global H3K4me2 levels in Calu-6 human lung adenocarcinoma cells; conditions: time point not stated
[5] = system: HCAD in Calu-6 anaplastic epithelial lung carcinoma cells; experiment: Re-expression of HCAD in Calu-6 cells; format: cell-based, human; conditions: 10 μM

## N=C(N)NN [Aminoguanidine]
[1]; 1 mM
  effect on SFRP2 levels: no effect

## N=C(NCCCNCCCCCCCNCCCNC(=N)NC(=N)NCCC(c1ccccc1)c1ccccc1)NC(=N)NCCC(c1ccccc1)c1ccccc1 [Compound 2d, (bis)-3,3-(diphenyl)propylbiguanide, reference compound]
[2]
  fold induction at 10 µM: 5

## Cl.N=C(N)SCCN1C(=O)c2ccccc2C1=O [Compound 5, 2-[N-(phthalimido)]ethyl carbamimidothioate hydrochloride]
[3]
  Increases in H3K4me1 levels: unremarkable

## Cl.Cl.NCCNc1c([N+](=O)[O-])cc(C(F)(F)F)cc1[N+](=O)[O-] [Compound 6]
[3]
  Increases in H3K4me1 levels: unremarkable
[4]
  changes in H3K4 / lysine methylation in the Calu-6 cell line: no effect

## Cl.N=C(N)SCCCN1C(=O)c2ccccc2C1=O [Compound 8]
[3]
  Increases in H3K4me1 levels: unremarkable

## Cl.N=C(N)SCCCCN1C(=O)c2ccccc2C1=O [Compound 9]
[3]
  Increases in H3K4me1 levels: unremarkable

## CCNCCCCNCCCCNCCCCNCCCCNC/C=C/CNCCCCNCCCCNCCCCNCCCCNCC [PG11144]
[5]
  fold increase in HCAD expression, 24 hours: 1.47 fold
[1]; 5 μM
  effect on SFRP2 levels: no effect
